{"source": "patent US20230040247A1", "about": "“COMPOUNDS FOR TREATING NEURODEGENERATIVE DISEASES” (Amabiotics, priority 2019, published 2023)", "system": "endogenous a-synuclein phosphorylation at serine 129", "experiment": "huPFFs-induced endogenous a-synuclein phosphorylation at serine 129 in primary cortical cultures (EP1536Y immunofluorescence)", "assay_type": "cell-based, mouse", "description": "The study was designed to evaluate the effects of queuine in an in vitro cell-based experimental model of synucleinopathy. The study aimed to evaluate the impact of queuine on the experimental synucleinopathy, in particular of the Lewy body type, induced by exogenous human preformed a-synuclein fibrils (huPFFs) in cortical cultures of wild-type (WT) mice (Volpicelli-Daley et al. (2011) Neuron. 72:57-7).\nQueuine was evaluated for its capability to afford protection against the induction of endogenous a-synuclein phosphorylation at serine 129 (a surrogate marker of de novo a-synuclein aggregation) triggered by exposure to exogenous human recombinant (unphosphorylated) a-synuclein preformed fibrils (huPFFs).\nPrimary cultures of dissociated cortices from embryonic day E18 WT mouse embryos were used as the biological system. Timed pregnant female mice were received from Charles River Laboratories 2 days before initiation of the primary culture. […] At 30 DIV, the neuronal cultures were fixed with PFA, and the effects of the treatments were evaluated by performing two double immunostainings: • (i) D37A6/Syn1 to detect total rodent a-synuclein/human plus rodent non aggregated a-synuclein; • (ii) EP1536Y/Syn211 to detect rodent and human a-synuclein phosphorylated at S129/total human a-synuclein.\nThe induction of a-synuclein phosphorylation was quantified by measuring the accumulation of phospho-a-synuclein (length of the phospho-a-synuclein-positive neurite network, number of phospho-a-synuclein positive cell bodies).\nThe experimental conditions were performed in quadruplicate (for compound-treated conditions+/−huPFFs) and triplicate (for controls+/−huPFFs) wells. An array of nine individual microscopic fields were acquired in each single well, and 3 channels were recorded for each field (green fluorescence excited @488 nm, red fluorescence excited @594 nm, and phase contrast). […]\nTo further evaluate the effects of queuine, the EP1536Y signal was segmented to quantify the phospho-a-synuclein positive neurites. […]"}
{"substance": "7-(3,4-trans-4,5-cis-dihydroxy-1-cyclopenten-3-ylaminomethyl)-7-deazaguanine [queuine]", "values": [{"measurement": "effect on untreated neurones (induction of synuclein phosphorylation at S129)", "setting": "WT mouse cortical neurones without huPFFs, concentration range tested (10 μM, 1 μM, 0.1 μM)", "result": "no effect"}, {"measurement": "EP1536Y immunofluorescence signal, representative of the phosphorylation of a-synuclein", "setting": "WT mouse cortical neurons exposed to 10 nM huPFFs, queuine pretreatment at 100 nM compared to control (FIG. 1)", "result": "decreased"}, {"measurement": "decrease of a-synuclein phosphorylation at S129 induced by huPFFs", "setting": "huPFFs-treated (10 nM) WT mouse cortical neurones, all doses tested (10 μM, 1 μM, 0.1 μM), normalised to huPFFs condition (FIG. 2), significant", "result": "approx. −50%"}]}
